# Measured values as given in patent publication US10709707B2, “Methods of treating ocular conditions” (Oyster Point Pharma, Inc., priority 2016, dated 2020).
# Entries after “also recorded” stand apart in the source; their conditions may differ.
# How the values were obtained:
# a6/a3b2b3 = a6/a3b2b3 (Homo sapiens, UniProt P17787+P32297+Q15825); experiment: Receptor binding a6/a3b2b3
# [1] = test system: subjects (intranasal administration); experiment: Panel of compounds administered intranasally: effect on tearing and discomfort response; conditions: 50 microliters intranasally, three subjects, 0.01 mg/mL increased logarithmically up to 10 mg/mL
# Description: A panel of twenty compounds with various receptor binding profiles, including other nicotinic acetylcholine receptor (nAchR) agonists were tested. At the onset of the experiment, 50 microliters of a 0.01 mg/mL compound formulation was administered intranasally to three subjects.
# [2] = test system: arterial pressure, heart rate, ECG, body temperature; experiment: Cardiovascular safety, conscious telemetered monkeys po; format: in vivo, Monkey: Cynomologous; conditions: single oral doses 3, 10, 30 mg/kg
# [3] = 7-day pilot intranasal toxicity and toxicokinetic study in rats; conditions: for AUC(0-t): AUC0-t
# Description: The study design was as follows:
# The following parameters and end points were evaluated in this study; clinical signs, body weights, body weight gain, food consumption, ophthalmology, toxicokinetic parameters, gross necropsy findings, organ weights, and histopathologic examination of select tissues, including nasal cavity at levels I-IV and detailed ocular histopathology for all dose groups: histopathology for brain, pharynx, larynx, trachea, lung, and select target tissues (i.e., adrenal gland, liver, and spleen) that were identified in a GLP 13-week oral toxicity study in rats (DSE 2004-0356) in group 1 and 4 animals, and gross lesions.
# respiratory parameters = experiment: Respiratory safety pharmacology; format: in vivo, Rat: Sprague-Dawley
# Distribution coefficient = format: physicochemical; conditions: pH 7.4
# [4] = test system: general behavior (Irwin profile); experiment: CNS safety pharmacology, general behavior (Irwin profile); format: in vivo, Rat: Sprague-Dawley
# human α7 = target: T1, human α7 (Homo sapiens, UniProt P36544); experiment: Receptor binding α7, recombinant human receptors in HEK cells; conditions: human α7 expressed in HEK cells
# T1 construct: expressed in transfected cells; host or cells: HEK cells (per the earlier reading)
# muscle receptor (α1β1δγ) = target: T2, muscle receptor (α1β1δγ) (Homo sapiens, UniProt P02708+P07510+Q07001); experiment: Receptor binding muscle receptor, TE-671 membranes
# T2 construct: endogenous in cells; host or cells: TE671 (TE-671) cells / membranes (per the earlier reading)
# mouse lymphoma cells = experiment: micronucleus test in mouse lymphoma cells; format: cell-based; conditions: in vitro
# Description: (§1) Compound 1 was negative for mutagenicity in both in vitro bioassays—including an Ames test, a micronucleus test in mouse lymphoma cells, and a chromosome aberration assay using cultured human peripheral blood lymphocytes—and an in vivo rat bone marrow micronucleus test.
# [5] = test system: cultured human peripheral blood lymphocytes; experiment: chromosome aberration assay; format: cell-based; conditions: in vitro
# Description: as §1
# Ames test = format: cell-based; conditions: in vitro
# Description: as §1
# [6] = target: remaining muscarinic subtypes; experiment: Follow-up dose response binding assay (CEREP)
# [7] = Single dose pharmacokinetics, mouse; format: in vivo, Swiss mouse; conditions: for half-life: po, 1 mg/kg
# [8] = clinical studies with oral Compound 1; format: in vivo, human
# Description: The oral form of Compound 1-A, Compound 1, has been studied in several clinical trials. A total of 108 human subjects have received Compound 1: 69 healthy volunteers in Phase 1 studies, 23 subjects in a Phase 1b gastroparesis study, and 16 subjects with constipation predominant irritable bowel syndrome (IBS-C) in a Phase 2a study. Subjects were exposed to doses of Compound 1 ranging from 5 mg through and including 200 mg.
# [9] = Female, Day 1, 0.9 mg/day (0.5%), intranasal TID
# [10] = Female, Day 1, 3.6 mg/day (2%), intranasal TID
# [11] = Female, Day 1, 10.8 mg/day (6%), intranasal TID
# [12] = Female, Day 7, 0.9 mg/day (0.5%), intranasal TID
# [13] = Female, Day 7, 3.6 mg/day (2%), intranasal TID
# [14] = Female, Day 7, 10.8 mg/day (6%), intranasal TID
# [15] = Male, Day 1, 0.9 mg/day (0.5%), intranasal TID
# [16] = Male, Day 1, 3.6 mg/day (2%), intranasal TID
# [17] = Male, Day 1, 10.8 mg/day (6%), intranasal TID
# [18] = Male, Day 7, 0.9 mg/day (0.5%), intranasal TID
# [19] = Male, Day 7, 3.6 mg/day (2%), intranasal TID
# [20] = Male, Day 7, 10.8 mg/day (6%), intranasal TID
# [21] = female, rat, plasma, inhaled or intranasal, 0.9 mg/day, Female, Day 1, 0.9 mg/day (0.5%), intranasal TID
# [22] = female, rat, plasma, inhaled or intranasal, 0.9 mg/day, Female, Day 7, 0.9 mg/day (0.5%), intranasal TID
# [23] = female, rat, plasma, inhaled or intranasal, 3.6 mg/day, Female, Day 1, 3.6 mg/day (2%), intranasal TID
# [24] = female, rat, plasma, inhaled or intranasal, 3.6 mg/day, Female, Day 7, 3.6 mg/day (2%), intranasal TID
# [25] = female, rat, plasma, inhaled or intranasal, 10.8 mg/day, Female, Day 1, 10.8 mg/day (6%), intranasal TID
# [26] = female, rat, plasma, inhaled or intranasal, 10.8 mg/day, Female, Day 7, 10.8 mg/day (6%), intranasal TID
# [27] = male, rat, plasma, inhaled or intranasal, 0.9 mg/day, Male, Day 1, 0.9 mg/day (0.5%), intranasal TID
# [28] = male, rat, plasma, inhaled or intranasal, 0.9 mg/day, Male, Day 7, 0.9 mg/day (0.5%), intranasal TID
# [29] = male, rat, plasma, inhaled or intranasal, 3.6 mg/day, Male, Day 1, 3.6 mg/day (2%), intranasal TID
# [30] = male, rat, plasma, inhaled or intranasal, 3.6 mg/day, Male, Day 7, 3.6 mg/day (2%), intranasal TID
# [31] = male, rat, plasma, inhaled or intranasal, 10.8 mg/day, Male, Day 1, 10.8 mg/day (6%), intranasal TID
# [32] = male, rat, plasma, inhaled or intranasal, 10.8 mg/day, Male, Day 7, 10.8 mg/day (6%), intranasal TID
# [33] = plasma, Swiss mouse, 1.0 mg/kg Compound 1, oral
# T2 sequence (P11230 24-501): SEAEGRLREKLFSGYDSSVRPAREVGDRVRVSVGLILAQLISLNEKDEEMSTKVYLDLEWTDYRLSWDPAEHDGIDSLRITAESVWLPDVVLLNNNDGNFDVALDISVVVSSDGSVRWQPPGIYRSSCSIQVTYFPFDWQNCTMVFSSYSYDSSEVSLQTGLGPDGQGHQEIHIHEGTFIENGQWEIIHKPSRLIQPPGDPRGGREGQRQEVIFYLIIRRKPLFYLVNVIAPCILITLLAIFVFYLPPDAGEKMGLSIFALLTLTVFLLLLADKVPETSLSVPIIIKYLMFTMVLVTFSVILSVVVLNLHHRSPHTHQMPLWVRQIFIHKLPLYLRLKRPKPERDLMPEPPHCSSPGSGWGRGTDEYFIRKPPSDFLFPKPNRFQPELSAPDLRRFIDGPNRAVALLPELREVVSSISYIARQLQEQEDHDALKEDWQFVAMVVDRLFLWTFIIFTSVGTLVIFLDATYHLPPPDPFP
# T2 sequence (P02708 21-457): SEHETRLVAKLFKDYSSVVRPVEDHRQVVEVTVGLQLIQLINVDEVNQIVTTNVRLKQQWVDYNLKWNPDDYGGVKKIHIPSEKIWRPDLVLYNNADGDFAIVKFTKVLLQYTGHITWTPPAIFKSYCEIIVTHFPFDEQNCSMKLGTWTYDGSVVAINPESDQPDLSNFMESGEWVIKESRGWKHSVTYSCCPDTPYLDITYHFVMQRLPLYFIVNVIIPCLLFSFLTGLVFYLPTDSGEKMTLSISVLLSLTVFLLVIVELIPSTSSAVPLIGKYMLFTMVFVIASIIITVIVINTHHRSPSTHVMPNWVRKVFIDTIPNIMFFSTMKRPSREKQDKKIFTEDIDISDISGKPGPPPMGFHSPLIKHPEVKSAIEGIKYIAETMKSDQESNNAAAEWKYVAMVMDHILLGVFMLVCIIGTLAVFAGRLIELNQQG
# T2 sequence (Q07001 22-517): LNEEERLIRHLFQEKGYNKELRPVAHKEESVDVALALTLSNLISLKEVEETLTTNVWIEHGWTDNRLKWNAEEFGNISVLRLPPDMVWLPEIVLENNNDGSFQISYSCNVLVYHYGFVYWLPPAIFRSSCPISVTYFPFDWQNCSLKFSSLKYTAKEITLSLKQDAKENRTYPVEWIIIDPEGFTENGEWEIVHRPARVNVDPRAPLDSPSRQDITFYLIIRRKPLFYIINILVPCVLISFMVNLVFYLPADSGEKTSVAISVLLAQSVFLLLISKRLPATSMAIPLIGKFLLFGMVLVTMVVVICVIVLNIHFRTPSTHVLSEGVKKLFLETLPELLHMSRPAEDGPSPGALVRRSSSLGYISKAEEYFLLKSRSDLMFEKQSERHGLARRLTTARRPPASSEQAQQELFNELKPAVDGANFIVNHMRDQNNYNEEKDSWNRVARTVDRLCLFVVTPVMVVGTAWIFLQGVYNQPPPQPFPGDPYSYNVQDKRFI
# T2 sequence (P07510 23-517): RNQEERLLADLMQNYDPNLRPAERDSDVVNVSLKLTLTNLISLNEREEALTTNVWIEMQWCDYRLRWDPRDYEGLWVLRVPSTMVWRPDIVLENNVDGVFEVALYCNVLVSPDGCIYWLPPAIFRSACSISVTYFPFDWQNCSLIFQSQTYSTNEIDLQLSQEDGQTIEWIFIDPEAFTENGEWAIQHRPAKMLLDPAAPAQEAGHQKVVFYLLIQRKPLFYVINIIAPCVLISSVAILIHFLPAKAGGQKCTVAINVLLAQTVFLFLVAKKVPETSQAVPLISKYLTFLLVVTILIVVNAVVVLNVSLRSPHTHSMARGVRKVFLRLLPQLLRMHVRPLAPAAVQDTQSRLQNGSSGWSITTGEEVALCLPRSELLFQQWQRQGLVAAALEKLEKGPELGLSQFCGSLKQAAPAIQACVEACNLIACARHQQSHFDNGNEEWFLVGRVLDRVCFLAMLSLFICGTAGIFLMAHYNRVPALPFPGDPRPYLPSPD
# Sequence of a6/a3b2b3 (Q15825+P32297 fused with the stated changes): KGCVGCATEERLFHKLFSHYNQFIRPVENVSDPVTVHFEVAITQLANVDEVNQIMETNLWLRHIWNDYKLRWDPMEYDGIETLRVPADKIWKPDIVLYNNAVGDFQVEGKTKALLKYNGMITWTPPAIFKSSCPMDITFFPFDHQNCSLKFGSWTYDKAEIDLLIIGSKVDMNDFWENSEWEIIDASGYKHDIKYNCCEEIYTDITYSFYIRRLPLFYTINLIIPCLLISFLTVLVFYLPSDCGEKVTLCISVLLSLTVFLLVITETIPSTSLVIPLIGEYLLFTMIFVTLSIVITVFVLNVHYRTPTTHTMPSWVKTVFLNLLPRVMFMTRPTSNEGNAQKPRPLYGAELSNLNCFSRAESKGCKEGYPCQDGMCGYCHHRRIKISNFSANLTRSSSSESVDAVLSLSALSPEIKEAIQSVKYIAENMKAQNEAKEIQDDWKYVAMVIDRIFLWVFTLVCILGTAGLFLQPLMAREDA
# Sequence of a6/a3b2b3 (P17787 26-502): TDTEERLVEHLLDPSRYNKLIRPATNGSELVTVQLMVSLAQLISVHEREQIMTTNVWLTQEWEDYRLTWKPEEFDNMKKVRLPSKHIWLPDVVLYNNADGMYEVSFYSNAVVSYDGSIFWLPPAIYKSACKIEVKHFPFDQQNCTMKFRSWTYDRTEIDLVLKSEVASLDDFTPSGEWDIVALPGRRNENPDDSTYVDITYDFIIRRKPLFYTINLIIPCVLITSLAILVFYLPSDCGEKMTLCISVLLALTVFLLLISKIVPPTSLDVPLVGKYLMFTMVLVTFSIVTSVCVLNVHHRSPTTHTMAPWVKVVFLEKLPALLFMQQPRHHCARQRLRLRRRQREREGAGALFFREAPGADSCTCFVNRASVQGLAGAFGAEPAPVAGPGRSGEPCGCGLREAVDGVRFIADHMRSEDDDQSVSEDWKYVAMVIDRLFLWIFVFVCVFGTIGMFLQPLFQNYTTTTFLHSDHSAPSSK
# Sequence of a6/a3b2b3 (Q05901 25-458 partner limits assumed): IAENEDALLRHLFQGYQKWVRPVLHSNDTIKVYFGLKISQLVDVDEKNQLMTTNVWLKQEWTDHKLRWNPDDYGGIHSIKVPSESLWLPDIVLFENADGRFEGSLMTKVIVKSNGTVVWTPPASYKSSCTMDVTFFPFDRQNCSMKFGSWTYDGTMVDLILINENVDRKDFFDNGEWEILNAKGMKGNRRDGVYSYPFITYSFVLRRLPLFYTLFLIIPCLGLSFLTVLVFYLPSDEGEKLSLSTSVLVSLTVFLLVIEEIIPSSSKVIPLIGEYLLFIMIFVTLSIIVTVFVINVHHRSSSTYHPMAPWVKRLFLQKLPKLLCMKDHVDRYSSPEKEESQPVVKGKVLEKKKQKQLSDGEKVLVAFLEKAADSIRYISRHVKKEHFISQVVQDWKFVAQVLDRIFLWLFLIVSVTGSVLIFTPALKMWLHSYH
# T1 sequence (P36544 23-502): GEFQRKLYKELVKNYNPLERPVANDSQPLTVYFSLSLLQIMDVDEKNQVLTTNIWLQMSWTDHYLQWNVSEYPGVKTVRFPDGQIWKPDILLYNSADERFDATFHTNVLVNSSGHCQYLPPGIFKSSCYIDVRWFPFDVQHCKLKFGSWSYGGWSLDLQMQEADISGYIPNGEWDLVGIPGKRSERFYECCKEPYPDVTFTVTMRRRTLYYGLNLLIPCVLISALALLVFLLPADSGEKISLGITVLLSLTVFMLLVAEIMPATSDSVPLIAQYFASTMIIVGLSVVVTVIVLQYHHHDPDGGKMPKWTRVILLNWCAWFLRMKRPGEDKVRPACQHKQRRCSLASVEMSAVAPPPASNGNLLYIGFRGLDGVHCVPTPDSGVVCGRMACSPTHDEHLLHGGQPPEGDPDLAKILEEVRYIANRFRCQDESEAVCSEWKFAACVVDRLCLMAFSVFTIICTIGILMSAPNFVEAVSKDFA
smiles,measurement,setting,value
"C(=C\[C@H]1CCNC1)/c1cncnc1 [Compound 1, (R)-5-((E)-2-pyrrolidin-3-ylvinyl)pyrimidine]",Ki,a6/a3b2b3,0.24 µM
same,Causes Tearing,[1],Yes
same,Discomfort Response,[1],No
same,"arterial pressure, heart rate, ECG parameters, body temperature",[2],no noteworthy changes
same,"arterial pressure, heart rate, ECG parameters, body temperature",[2]; listed as TC6499,monkeys did not induce notable effects
same,C1 (peak concentration following 1st instillation),[3]; [9],26.1 ng/mL
same,C2 (peak concentration following 2nd instillation),[3]; [9],34.8 ng/mL
same,C3 (peak concentration following 3rd instillation),[3]; [9],34.9 ng/mL
same,DN AUC0-t (dose-normalized),[3]; [9],154 (ng*h/mL)/(mg)
same,C1 (peak concentration following 1st instillation),[3]; [10],50.2 ng/mL
same,C2 (peak concentration following 2nd instillation),[3]; [10],119 ng/mL
same,C3 (peak concentration following 3rd instillation),[3]; [10],278 ng/mL
same,DN AUC0-t (dose-normalized),[3]; [10],174 (ng*h/mL)/(mg)
same,C1 (peak concentration following 1st instillation),[3]; [11],326 ng/mL
same,C2 (peak concentration following 2nd instillation),[3]; [11],481 ng/mL
same,C3 (peak concentration following 3rd instillation),[3]; [11],329 ng/mL
same,DN AUC0-t (dose-normalized),[3]; [11],386 (ng*h/mL)/(mg)
same,C1 (peak concentration following 1st instillation),[3]; [12],20.3 ng/mL
same,C2 (peak concentration following 2nd instillation),[3]; [12],16.3 ng/mL
same,C3 (peak concentration following 3rd instillation),[3]; [12],37.5 ng/mL
same,DN AUC0-t (dose-normalized),[3]; [12],164 (ng*h/mL)/(mg)
same,C1 (peak concentration following 1st instillation),[3]; [13],68.0 ng/mL
same,C2 (peak concentration following 2nd instillation),[3]; [13],79.9 ng/mL
same,C3 (peak concentration following 3rd instillation),[3]; [13],76.0 ng/mL
same,DN AUC0-t (dose-normalized),[3]; [13],93.5 (ng*h/mL)/(mg)
same,C1 (peak concentration following 1st instillation),[3]; [14],218 ng/mL
same,C2 (peak concentration following 2nd instillation),[3]; [14],224 ng/mL
same,C3 (peak concentration following 3rd instillation),[3]; [14],210 ng/mL
same,DN AUC0-t (dose-normalized),[3]; [14],137 (ng*h/mL)/(mg)
same,C1 (peak concentration following 1st instillation),[3]; [15],51.9 ng/mL
same,C2 (peak concentration following 2nd instillation),[3]; [15],36.3 ng/mL
same,C3 (peak concentration following 3rd instillation),[3]; [15],54.2 ng/mL
same,C1 (peak concentration following 1st instillation),[3]; [16],86.4 ng/mL
same,C2 (peak concentration following 2nd instillation),[3]; [16],343 ng/mL
same,C3 (peak concentration following 3rd instillation),[3]; [16],134 ng/mL
same,DN AUC0-t (dose-normalized),[3]; [16],230 (ng*h/mL)/(mg)
same,C1 (peak concentration following 1st instillation),[3]; [17],208 ng/mL
same,C2 (peak concentration following 2nd instillation),[3]; [17],332 ng/mL
same,C3 (peak concentration following 3rd instillation),[3]; [17],924 ng/mL
same,DN AUC0-t (dose-normalized),[3]; [17],157 (ng*h/mL)/(mg)
same,C1 (peak concentration following 1st instillation),[3]; [18],12.4 ng/mL
same,C2 (peak concentration following 2nd instillation),[3]; [18],28.0 ng/mL
same,C3 (peak concentration following 3rd instillation),[3]; [18],33.7 ng/mL
same,C1 (peak concentration following 1st instillation),[3]; [19],110 ng/mL
same,C2 (peak concentration following 2nd instillation),[3]; [19],53.8 ng/mL
same,C3 (peak concentration following 3rd instillation),[3]; [19],25.5 ng/mL
same,DN AUC0-t (dose-normalized),[3]; [19],82.7 (ng*h/mL)/(mg)
same,C1 (peak concentration following 1st instillation),[3]; [20],166 ng/mL
same,C2 (peak concentration following 2nd instillation),[3]; [20],209 ng/mL
same,C3 (peak concentration following 3rd instillation),[3]; [20],225 ng/mL
same,DN AUC0-t (dose-normalized),[3]; [20],81.3 (ng*h/mL)/(mg)
same,half-life,"[3]; both, rat, plasma, inhaled or intranasal",1.4 h
same,AUC(0-t),[3]; [21],138 ng·h/mL
same,AUC(0-t),[3]; [22],148 ng·h/mL
same,Cmax,[3]; [21],34.9 ng/mL
same,Cmax,[3]; [22],37.5 ng/mL
same,Tmax,[3]; [21],12.1 h
same,Tmax,[3]; [22],12.1 h
same,AUC(0-t),[3]; [23],626 ng·h/mL
same,AUC(0-t),[3]; [24],336 ng·h/mL
same,Cmax,[3]; [23],278 ng/mL
same,Cmax,[3]; [24],79.9 ng/mL
same,Tmax,[3]; [23],12.1 h
same,Tmax,[3]; [24],6.08 h
same,AUC(0-t),[3]; [25],4170 ng·h/mL
same,AUC(0-t),[3]; [26],1480 ng·h/mL
same,Cmax,[3]; [25],481 ng/mL
same,Cmax,[3]; [26],224 ng/mL
same,Tmax,[3]; [25],6.08 h
same,Tmax,[3]; [26],6.08 h
same,Cmax,[3]; [27],54.2 ng/mL
same,Cmax,[3]; [28],33.7 ng/mL
same,Tmax,[3]; [27],12.1 h
same,Tmax,[3]; [28],12.1 h
same,AUC(0-t),[3]; [29],829 ng·h/mL
same,AUC(0-t),[3]; [30],298 ng·h/mL
same,Cmax,[3]; [29],343 ng/mL
same,Cmax,[3]; [30],110 ng/mL
same,Tmax,[3]; [29],6.08 h
same,Tmax,[3]; [30],0.083 h
same,AUC(0-t),[3]; [31],1700 ng·h/mL
same,AUC(0-t),[3]; [32],878 ng·h/mL
same,Cmax,[3]; [31],924 ng/mL
same,Cmax,[3]; [32],225 ng/mL
same,Tmax,[3]; [31],12.1 h
same,Tmax,[3]; [32],12.1 h
same,time of peak systemic exposure after each instillation,"[3]; rat, intranasal TID, post administration",5 min
same,survival,"[3]; rats, intranasal 0.5%, 2% and 6%, 3 times per day for 7 days",survival of all animals to scheduled euthanasia
same,no-observed-adverse-effect-level (NOAEL),"[3]; rats, intranasal 3 times per day for 7 days",180 μL 6% Compound 1 per animal per day
same,"respiratory rate, minute volume, peak inspiratory flow",respiratory parameters; 100 mg/kg po,"Transient adverse effects; also recorded: shortlasting increase in respiratory rate,"
same,respiratory parameters,respiratory parameters; 10 and 30 mg/kg po,10 and 30 mg/kg did not cause changes
same,tidal volume and index of airway resistance,respiratory parameters; 5 hour observation period,There were no changes in tidal volume and
same,"NOEL, respiratory",respiratory parameters; po,The NOEL was 30 mg/kg.
same,logD,Distribution coefficient,< 1
same,"NOEL, general behavior (Irwin profile)","[4]; 15, 50, 150 mg/kg po",greater than 150 mg/kg.
same,effect on general behavior (Irwin profile),"[4]; po, doses up to and including 100 mg/kg",no noteworthy changes; also recorded: Compound 1 had no effect on general
same,Ki,human α7,15 µM
same,Ki,muscle receptor (α1β1δγ),36 µM
same,"mutagenicity, micronucleus test",mouse lymphoma cells,negative
same,"mutagenicity, chromosome aberration assay",[5],negative
same,"mutagenicity, Ames test",Ames test,negative
same,Ki,[6],> 10 µM
same,Kp,"[7]; Swiss, mouse, brain, oral, 1 mg/kg orally, read-out: brain exposure as share of plasma exposure",~0.3
same,half-life,"[7]; Swiss, mouse, plasma, 1 mg/kg orally, read-out: terminal elimination half-life (converted)",~0.5 h
same,half-life,"[7]; Swiss, mouse, plasma, Swiss mouse, 1.0 mg/kg Compound 1, oral, read-out: t1/2 (converted)",0.5 h
same,Cmax,[7]; [33],15 ng/mL
same,Tmax,[7]; [33],0.167 h
same,AUC(0-t),"[7]; plasma, Swiss mouse, 1.0 mg/kg Compound 1, oral, t = 25 h, read-out: AUC0-1",10.1 ng·h/mL
same,"changes in physical exam, blood or urine laboratory measurements or ECG measurements","[8]; 108 human subjects, oral doses 5 mg to 200 mg",No clinical noteworthy changes
same,adverse events reported,"[8]; all studies, oral doses 5 mg to 200 mg",typically GI-related
same,changes in ECG measurements,[8]; clinical studies to date,no noteworthy changes
